Data as given in patent US20260132129A1 (Genesis Therapeutics, Inc., priority 2022, published 2026).

Target: T1, PI3Kα H1047R (T47D cells) (Homo sapiens, UniProt P42336, H1047R)
T1 construct: endogenous in cells; host or cells: T47D cells
Assay: PI3Kα cellular assay: pAKT HTRF in T47D cells after EGF stimulation
Type: cell-based
Details: for IC50: T47D cells (PI3Kα H1047R), pAKT S473 HTRF
Description: SKBR3 or T47D cells are seeded in DMEM containing 10% FBS at 25k cells/well into 96-well cell culture format. Cells are incubated overnight at 37° C. in a 5% CO2 incubator and the following day cell media is aspirated, adherent cells are washed 1× with room temperature PBS prior to serum-free media application. Cells are returned to 37° C. 5% CO2 incubator and incubated a further 16 hrs. Compounds are added to serum starved adherent cells with a top dose of 10,000 nM and 3× multiple dose reductions for a minimum dose of 0.5 nM diluted in DMSO. Cell/compound incubation continues for 1 hr in a 37° C., 5% CO2 incubator prior to 10 minute PIK3CA stimulation with 20 ng/ml EGF. Cells treated with 0.1% DMSO and 20 ng/mL EGF are employed as negative control, cells treated with 10 uM Alpelisib and 20 ng/mL EGF are employed as a positive control. After 10 mins, plates are removed from incubator and cells are lysed with buffer and shaking 45 minutes. […] 384 well plate is left overnight at room temperature before reading HTRF on an Envision plate reader.
ND denotes value not determined with that assay for the specified compound; • for T47D (H1047R) selectivity over SKBR3 (WT): A denotes >20-fold; B denotes 20-fold≥value>5-fold; C denotes ≤5-fold. ND denotes value not determined with that assay for the specified compound; and • for T47D pAKT lipophilic efficiency (LiPE): A denotes >4; B denotes 4≥value>2; C denotes ≤2. ND denotes value not determined with that assay for the specified compound.

[1] = selectivity of T47D (H1047R) over SKBR3 (WT) pAKT IC50
[2] = selectivity T47D (H1047R) over SKBR3 (WT), pAKT HTRF
[3] = 1 hr compound, 20 ng/ml EGF 10 min

T1 sequence (P42336 whole entry H1047R): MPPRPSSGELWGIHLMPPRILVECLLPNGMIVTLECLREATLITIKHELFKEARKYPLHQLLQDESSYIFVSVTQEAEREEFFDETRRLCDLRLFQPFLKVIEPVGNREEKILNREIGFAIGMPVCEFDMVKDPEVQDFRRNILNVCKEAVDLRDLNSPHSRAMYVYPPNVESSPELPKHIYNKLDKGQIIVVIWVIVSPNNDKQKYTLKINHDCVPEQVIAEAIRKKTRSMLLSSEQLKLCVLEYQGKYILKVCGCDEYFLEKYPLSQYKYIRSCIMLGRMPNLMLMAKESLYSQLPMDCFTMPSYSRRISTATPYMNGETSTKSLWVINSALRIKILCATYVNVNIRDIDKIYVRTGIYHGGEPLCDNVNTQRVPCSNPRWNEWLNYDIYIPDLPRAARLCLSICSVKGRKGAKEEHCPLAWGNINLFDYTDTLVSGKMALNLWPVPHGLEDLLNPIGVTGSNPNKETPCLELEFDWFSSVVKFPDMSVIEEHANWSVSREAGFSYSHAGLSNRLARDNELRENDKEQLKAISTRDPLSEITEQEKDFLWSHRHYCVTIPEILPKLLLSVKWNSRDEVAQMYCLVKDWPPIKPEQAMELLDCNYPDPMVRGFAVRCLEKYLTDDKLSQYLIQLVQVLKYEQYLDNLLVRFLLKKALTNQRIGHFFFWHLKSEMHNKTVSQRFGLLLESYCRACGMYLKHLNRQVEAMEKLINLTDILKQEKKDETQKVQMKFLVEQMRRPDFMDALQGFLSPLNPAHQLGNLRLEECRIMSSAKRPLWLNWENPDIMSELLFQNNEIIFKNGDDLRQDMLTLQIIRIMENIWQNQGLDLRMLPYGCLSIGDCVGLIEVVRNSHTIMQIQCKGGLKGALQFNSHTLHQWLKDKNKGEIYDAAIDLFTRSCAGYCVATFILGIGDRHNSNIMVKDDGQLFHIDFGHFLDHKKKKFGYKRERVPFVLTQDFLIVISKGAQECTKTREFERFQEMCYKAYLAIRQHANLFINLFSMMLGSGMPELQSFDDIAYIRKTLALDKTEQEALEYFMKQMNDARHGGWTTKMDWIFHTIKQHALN
T1 sequence (P27986 whole entry partner): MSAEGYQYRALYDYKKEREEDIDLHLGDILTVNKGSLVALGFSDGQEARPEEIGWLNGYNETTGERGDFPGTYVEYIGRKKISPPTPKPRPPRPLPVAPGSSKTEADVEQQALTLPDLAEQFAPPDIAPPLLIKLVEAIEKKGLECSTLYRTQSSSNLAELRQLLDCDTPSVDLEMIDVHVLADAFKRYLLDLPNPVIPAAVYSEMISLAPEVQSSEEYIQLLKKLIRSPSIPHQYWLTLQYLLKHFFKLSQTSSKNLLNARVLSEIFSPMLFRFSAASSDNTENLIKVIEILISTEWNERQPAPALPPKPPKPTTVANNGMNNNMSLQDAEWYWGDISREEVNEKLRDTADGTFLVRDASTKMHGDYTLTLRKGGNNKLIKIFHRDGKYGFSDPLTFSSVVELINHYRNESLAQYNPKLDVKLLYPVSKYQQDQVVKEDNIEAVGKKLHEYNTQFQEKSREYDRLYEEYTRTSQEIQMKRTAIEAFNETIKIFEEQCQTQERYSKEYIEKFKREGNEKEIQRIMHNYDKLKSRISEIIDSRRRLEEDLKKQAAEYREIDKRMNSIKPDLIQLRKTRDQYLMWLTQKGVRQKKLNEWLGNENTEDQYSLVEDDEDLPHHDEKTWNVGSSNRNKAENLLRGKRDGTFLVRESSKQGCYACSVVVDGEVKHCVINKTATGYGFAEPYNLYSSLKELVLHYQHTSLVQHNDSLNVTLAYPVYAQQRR

Row | IC50 (EGF stimulation) | T47D pAKT S473 HTRF IC50 (H1047R): T47D (H1047R) selectivity over SKBR3 (WT) [1] | T47D pAKT S473 HTRF IC50 (H1047R): T47D (H1047R) selectivity over SKBR3 (WT) [2] | IC50 [3] | SMILES
1 | < 100 nM | A (A denotes >20-fold) | – | – | Cc1cc([C@@H](C)Nc2ccccc2C(=O)O)c2nc(-c3ccc(Cl)cc3)c(C)c(=O)n2c1 (single isomer, unassigned) [Compound 963]
2 | < 100 nM | A (A denotes >20-fold) | – | – | Cc1cc([C@@H](C)Nc2ccccc2C(=O)O)c2nc(-c3cccc(C#N)c3)c(C)c(=O)n2c1 (single isomer, unassigned) [Compound 967]
3 | < 100 nM | A (A denotes >20-fold) | – | – | Cc1cc([C@@H](C)Nc2ccccc2C(=O)O)c2nc(-c3cccc(F)c3)c(C)c(=O)n2c1 (single isomer, unassigned) [Compound 969]
4 | < 100 nM | A (A denotes >20-fold) | – | – | Cc1cc([C@@H](C)Nc2ccccc2C(=O)O)c2nc(-c3cccc(C4CC4)c3)c(C)c(=O)n2c1 (single isomer, unassigned) [Compound 971]
5 | < 100 nM | A (A denotes >20-fold) | – | – | Cc1cc([C@@H](C)Nc2ccccc2C(=O)O)c2nc(-c3ccc(C4CC4)nc3)c(C)c(=O)n2c1 (single isomer, unassigned) [Compound 973]
6 | < 100 nM | A (A denotes >20-fold) | – | – | Cc1cc([C@@H](C)Nc2ccccc2C(=O)O)c2nc(-c3ccc(C#N)nc3)c(C)c(=O)n2c1 (single isomer, unassigned) [Compound 975]
7 | 500 to 2000 nM | B (B denotes 20-fold≥value>5-fold) | – | – | Cc1cc([C@H](C)Nc2ccccc2C(=O)O)c2nc(C3Cc4ccccc4C3)c(C3CC3)c(=O)n2c1 (single isomer, unassigned) [Compound 983]
8 | > 2000 nM | – | C (C denotes ≤5-fold) | – | Cc1cc([C@@H](C)Nc2ccccc2C(=O)O)c2nc(OC3CCOCC3)c(C)c(=O)n2c1 (single isomer, unassigned) [Compound 1370]
9 | < 100 nM | – | A (A denotes >20-fold) | – | Cc1cc([C@H](C)Nc2ccccc2C(=O)O)c2nc(OC3CCOCC3)c(C)c(=O)n2c1 (single isomer, unassigned) [Compound 1371]
10 | 100 to 500 nM | – | A (A denotes >20-fold) | – | Cc1cc([C@@H](C)Nc2cccc3onc(O)c23)c2nc(-c3cccc(F)c3)c(C)c(=O)n2c1 (single isomer, unassigned) [Compound 1374]
11 | < 100 nM | – | A (A denotes >20-fold) | – | Cc1cc([C@H](C)Oc2ccccc2C2(O)CS(=O)(=O)C2)c2nc(-c3cccc(F)c3)c(C)c(=O)n2c1 (single isomer, unassigned) [Compound 1393]
12 | – | – | A (A denotes >20-fold) | 100 to 500 nM | Cc1cc([C@@H](C)Nc2ccccc2C(=O)O)c2nc(N3CCCCC3)cc(=O)n2c1 [Compound 7]
13 | – | – | C (C denotes ≤5-fold) | > 2000 nM | Cc1cc([C@H](C)Nc2ccccc2C(=O)O)c2nc(N3CCCCC3)cc(=O)n2c1 [Compound 8]
14 | – | – | C (C denotes ≤5-fold) | > 2000 nM | CC1=CN2C(=O)CC(N3CCOCC3)N=C2C(C(C)Nc2ccccc2)=C1 (stereo not shown) [Compound 47]
15 | – | – | C (C denotes ≤5-fold) | 500 to 2000 nM | CCC(Nc1ccccc1C(=O)O)c1cc(C)cn2c(=O)cc(N3CCOCC3)nc12 (stereo not shown) [Compound 132]
16 | – | – | B (B denotes 20-fold≥value>5-fold) | – | Cc1cc(C(C)Nc2ccccc2S(C)(=O)=O)c2nc(N3CCOCC3)cc(=O)n2c1 (stereo not shown) [Compound 134]

Row | IC50 (EGF stimulation) | T47D pAKT S473 HTRF IC50 (H1047R): T47D (H1047R) selectivity over SKBR3 (WT) [1] | T47D pAKT S473 HTRF IC50 (H1047R): T47D (H1047R) selectivity over SKBR3 (WT) [2] | IC50 [3] | SMILES
17 | – | – | C (C denotes ≤5-fold) | > 2000 nM | Cc1cc(C(C)Nc2ccccc2C(=O)O)c2nc(N3CCS(=O)(=O)CC3)cc(=O)n2c1 (stereo not shown) [Compound 137]
18 | – | – | C (C denotes ≤5-fold) | > 2000 nM | Cc1cc([C@@H](C)Nc2ccccc2C(=O)O)c2nc(N3CCS(=O)(=O)CC3)cc(=O)n2c1 [Compound 138]
19 | – | – | C (C denotes ≤5-fold) | > 2000 nM | Cc1cc([C@H](C)Nc2ccccc2C(=O)O)c2nc(N3CCS(=O)(=O)CC3)cc(=O)n2c1 [Compound 139]
20 | – | – | A (A denotes >20-fold) | 100 to 500 nM | Cc1cc(C(C)Nc2ccccc2C(=O)O)c2nc(N3CCSCC3)cc(=O)n2c1 (stereo not shown) [Compound 140]
21 | – | – | C (C denotes ≤5-fold) | > 2000 nM | Cc1cc(C(C)Nc2ccccc2C(=O)O)c2nc(-c3ccc[nH]c3=O)cc(=O)n2c1 (stereo not shown) [Compound 144]
22 | – | – | B (B denotes 20-fold≥value>5-fold) | 500 to 2000 nM | Cc1cc(C(C)Nc2ccccc2C(=O)O)c2nc(-c3cnc(N)nc3)cc(=O)n2c1 (stereo not shown) [Compound 145]
23 | – | – | C (C denotes ≤5-fold) | > 2000 nM | Cc1cc([C@@H](C)Nc2ccccc2C(N)=O)c2nc(N3CCOCC3)cc(=O)n2c1 [Compound 146]
24 | – | – | B (B denotes 20-fold≥value>5-fold) | 500 to 2000 nM | Cc1cc([C@H](C)Nc2ccccc2C(N)=O)c2nc(N3CCOCC3)cc(=O)n2c1 [Compound 147]
25 | – | – | C (C denotes ≤5-fold) | > 2000 nM | CCc1cc([C@@H](C)Nc2ccccc2C(=O)O)c2nc(N3CCOCC3)cc(=O)n2c1 [Compound 149]
26 | – | – | C (C denotes ≤5-fold) | – | Cc1cc(C(C)Nc2ccccc2S(N)(=O)=O)c2nc(N3CCOCC3)cc(=O)n2c1 (stereo not shown) [Compound 151]
27 | – | – | B (B denotes 20-fold≥value>5-fold) | 500 to 2000 nM | Cc1cc([C@H](C)Nc2ccccc2S(N)(=O)=O)c2nc(N3CCOCC3)cc(=O)n2c1 [Compound 152]
28 | – | – | C (C denotes ≤5-fold) | > 2000 nM | Cc1cc(C(C)Nc2ccccc2C)c2nc(N3CCOCC3)cc(=O)n2c1 (stereo not shown) [Compound 154]
29 | – | – | C (C denotes ≤5-fold) | > 2000 nM | Cc1cc([C@@H](C)Nc2ccccc2C(=O)NS(C)(=O)=O)c2nc(N3CCOCC3)cc(=O)n2c1 [Compound 155]
30 | – | – | C (C denotes ≤5-fold) | > 2000 nM | Cc1cc([C@@H](C)Nc2ccccc2CC(=O)O)c2nc(N3CCOCC3)cc(=O)n2c1 [Compound 157]
31 | – | – | C (C denotes ≤5-fold) | > 2000 nM | Cc1cc([C@H](C)Nc2ccccc2CC(=O)O)c2nc(N3CCOCC3)cc(=O)n2c1 [Compound 158]

Row | SMILES | IC50 (EGF stimulation) | T47D pAKT S473 HTRF IC50 (H1047R): T47D (H1047R) selectivity over SKBR3 (WT) [1] | T47D pAKT S473 HTRF IC50 (H1047R): T47D (H1047R) selectivity over SKBR3 (WT) [2] | IC50 [3]
32 | Cc1cc([C@@H](C)Nc2ccccc2C(=O)O)c2nc(-c3ccc(Cl)cc3F)c(C)c(=O)n2c1 (single isomer, unassigned) [Compound 965] | < 100 nM | A (A denotes >20-fold) | – | –
33 | Cc1cc([C@H](C)Nc2ccccc2C(=O)O)c2nc(-c3cnc(C#N)c(Cl)c3)c(C)c(=O)n2c1 (single isomer, unassigned) [Compound 978] | < 100 nM | A (A denotes >20-fold) | – | –
